Experiments:
136TIL = experiment: Intracellular staining of IFN-γ after neoantigen peptide stimulation, 136TIL; format: cell-based, human
From the text: Among them, MAPK9 and ANKIB1 neoantigen-specific CD4^+ T cells accounted for 14.3% and 5.2% in the total T cell population, which accounted for 58% and 21% in the total tumor-reactive CD4^+ T cell population, respectively (FIG. 11B). By contrast, other neoantigen-specific CD4^+ T cells accounted for only a small percentage of T cells in the total T cell population (FIG. 11A). Since HHAT is only one MHC-I neoantigen, it was shown that HHAT neoantigen-specific CD8^+ T cells accounted for 10.6% in the total T cell population when stimulation with HHAT peptide (FIG. 11A), which accounted for 73% in the total tumor-reactive CD8^+ T cell population (FIG. 11B).
T cells were stimulated by various in vitro methods, such as tumor cells, peptides or DNA encoding neoantigens, etc. and induced to release cytokines. Stimulated T cells were resuspended in 100 μl of Cytofix/Cytoperm solution (BD Biosciences) per well for microwell plates (or 250 μl for tubes) and incubated for 20 min at 4° C. for cell fixation. Fixed cells were permeabilized by washing twice in 1× Perm/Wash buffer (BD Biosciences). Then the fixed/permeabilized cells were thoroughly resuspended in 50 μl of 1× Perm/Wash buffer containing 1 μl of phycoerythrin (PE)-conjugated IFN-γ antibody (Thermo Fisher Scientific) and incubate at 4° C. for 30 min in the dark. After that the cells were washed twice with 1× Perm/Wash buffer and ready for flow cytometric analysis.

[1] = test system: CD8^+ T cells isolated from 136 TILs; experiment: T-cell reactivity assay (ELISA): TMGs in MHC-I expressing Cos7 cells; format: cell-based, human; settings: Cos7-A1, Cos7-B8, Cos7-C7 cells
From the text: To identify MHC-I neoantigens, MHC-I expressing Cos7 cells were transfected (Cos7-A1, Cos7-B8 and Cos7-C7) cells with 35 TMGs, respectively, followed by adding CD8^+ T cells isolated from 136 TILs. […] To exclude the possibility that other MHC-I and II molecules could also present neoantigens for T cell recognition, fibroblasts were generated from patient #136 tumor samples and used as APCs to express all MHC I and II molecules after IFN-γ pretreatment (FIG. 9C). The IFN-γ—pretreated fibroblasts were electroporated with in IVT mRNA of 136 mel TMGs, and then co-cultured with 136TILs.

[2] = test system: A2ESO TCR-transduced CD4^+ T cells
Experimental: It was hypothesized that the improvement killing ability of CD4^+ T cells due to ThPOK knockdown is procedure of T-cell reprogramming via epigenetic regulation. To distinguish how ThPOK reprogrammed CD4^+ T cells to cytolytic CD4^+ T cells, a screening of A2ESO TCR-transduced CD4^+ T cells treated by various epigenetic inhibitors was performed.

A2ESO TCR-T cells = test system: A2ESO TCR-T cells
Experimental: Activated human T cells were transduced on day 2 and day 3 with A2ESO TCR viruses that were packaged by PG13-A2ESO TCR clone. […] To investigate the functional change of A2ESO TCR-T cells after 2-PCPA treatment, intracellular staining (ICS) was performed to check the expression of effector cytokines, targeting IL-2, IFN-γ and TNF-α. […] Another key feature of less-differentiated T cell is increased oxidative metabolism and mitochondrial respiratory capacity.

[3] = test system: MDA-MB-231 cells expressing HLA-A2 and NY-ESO-1; settings: mouse
From the text: A breast cancer model was established using MDA-MB-231 cells expressing HLA-A2 and NY-ESO-1 antigen in 8 weeks old NOD-scid IL2Rγnull (NSG) mice.

primary human T cells = settings: OKT3 activated T cells, day 12, CD45RO^− CCR7^+ CD62L^+
Raji lymphoma cells = settings: mouse
From the text: (§1) Both CAR and luciferase were transduced into activated T cells and transfer into NSG mice that have been injected with Raji lymphoma cells.

CAR-T cells = test system: CAR-T cells
From the text: as §1

## TSMLILSNLVFLEGNEVGKTYWNRI [HHAT]
136TIL
  neoantigen-specific CD8^+ T cells in the total T cell population: 10.6%
  share in the total tumor-reactive CD8^+ T cell population: 73%
[1]
  activation of CD8^+ T cell response: HLA-A1 restricted neoantigen

## NC1CC1c1ccccc1 (stereo not shown) [2-PCPA]
[2]
  cytolytic activity of CD4^+ TCR-T cells: dramatically enhanced the cytolytic activity
A2ESO TCR-T cells
  oxidative metabolism and spare respiratory capacity: increased oxidative metabolism and elevated spare respiratory capacity (SRC)
A2ESO TCR-T cells; 8 uM
  Tscm and Tcm percentages in A2ESO TCR-T cells: increased both Tscm and Tcm percentages
A2ESO TCR-T cells; ICS for IL-2, IFN-γ and TNF-α
  frequency of A2ESO TCR-T cells with polyfunctional cytokine secretion: slightly increased
A2ESO TCR-T cells; IL-2 free condition
  in vitro survival effect on A2ESO TCR-T cells: not seen
A2ESO TCR-T cells; stimulation with IL-2 or 231-ESO cells
  in vitro proliferation (CFSE): high proliferation potential
[3]
  in vivo anti-tumor function of A2ESO TCR-T cells: significantly enhanced
[3]; in vivo
  memory phenotype of T cells after adoptive transfer: maintained higher frequency of both Tscm and Tcm cells
Primary human T cells
  population of Tscm: increased the population of Tscm in both CD4^+ and CD8^+ T cells
Raji lymphoma cells
  in vivo proliferation of CAR-T cells (in vivo imaging): grew faster than control CAR-T cells
CAR-T cells
  memory phenotype of CAR-T cells: similarly increased the frequencies of less-differentiated memory T cells subsets
  metabolic reprogramming effect on CAR-T cells: consistent with its effect on A2ESO TCR-T cells
CAR-T cells; IL-2 free condition
  in vitro survival of CAR-T cells: survived better

From US12565680B2, “Cancer neoantigens and their utilities in cancer vaccines and TCR-based cancer immunotherapy” (THE METHODIST HOSPITAL SYSTEM, priority 2018, dated 2026)
